Test results taken from US20240382564A1, “Methods and Compositions for Treating Muscular Dystrophy and Memory Impairment” (Allysta Pharmaceuticals, Inc., priority 2023, published 2024).
Entries after “also recorded” stand apart in the source; their conditions may differ. Where no end group is shown, it is not given here. [ ]: non-standard residue; d: D form. Nva = CCC[C@H](N)C(=O)O

Tests used:
Assay type in all cases: in vivo, mouse
D2.mdx mice [1] = experiment: Cardiac (RV, LV) mitochondrial H2O2 emission and ADP-stimulated respiration
Protocol: (§1) D2.mdx mice were treated daily subcutaneously beginning at 7 days of age for 3 weeks at 1 μL/g with ALY688 at 15 mg/kg body weight (high dose drug; HD) or with a saline (VEH) control. Mice were compared to age-matched wildtypes (DBA/2J). […] However, ADP-stimulated respiration supported by pyruvate was increased in VEH (36%) and HD (46%) vs wildtype whereas HD had no effect vs VEH.

D2.mdx mice [2] = experiment: Fibrosis by Masson's trichrome staining of muscle sections after ALY688 treatment
Protocol: D2.mdx mice were treated with ALY688 at two different dosages; high dose (HD; 15 mg/kg body weight/day) or low dose (LD; 3 mg/kg body weight/day) dissolved in saline. A separate group of mice were treated with saline alone (VEH, vehicle). Treatment was provided via subscapular subcutaneous injections from 7 days of age to 28-30 days. […] At 28-30 days of age, mice were anaesthetized with isoflurane vaporized in medical air (21% oxygen) at a 2 L/min flow rate. Due to tissue limitations in limb muscle, certain measures were performed separately in tibialis anterior and quadriceps across several phases of breeding. […]
Samples collected were cut into 8 µm thick serial cross sections with a cryostat (Thermo Fisher Scientific; Kalamazoo, MI, United States;) maintained at −20° C. on Fisherbrand Superfrost Plus slides (Thermo Fisher Scientific). […] Centralized nuclei, a marker of regenerating fibres, was analyzed by selecting five evenly spaced images throughout the muscle and averaging the result. Areas of damage (fibres with fragmented sarcoplasm and immune cell infiltration) were expressed as a percentage of the entire muscle section. Images were taken using EVOS M7000 imager (Thermo Fisher Scientific) using 20× magnification and analyzed using ImageJ (http://imagej.nih.gov/ij/). […] These images were then analyzed with ImageJ for minimal Feret's diameter as an index of muscle atrophy.

D2.mdx mice [3] = experiment: Chamber-specific cardiac fibrosis, histopathological assessment
Protocol: as §1

D2.mdx mice [4] = experiment: Functional assays (grip strength, cage hang time, voluntary wheel running) and serum creatine kinase
Protocol: D2.mdx mice were treated with ALY688 at two different dosages; high dose (HD; 15 mg/kg body weight/day) or low dose (LD; 3 mg/kg body weight/day) dissolved in saline. A separate group of mice were treated with saline alone (VEH, vehicle). Treatment was provided via subscapular subcutaneous injections from 7 days of age to 28-30 days. […] At 28-30 days of age, mice were anaesthetized with isoflurane vaporized in medical air (21% oxygen) at a 2 L/min flow rate. Due to tissue limitations in limb muscle, certain measures were performed separately in tibialis anterior and quadriceps across several phases of breeding. Following the treatment protocol, in situ quadriceps force assessments were then performed in one limb followed by removal of the quadriceps from the other limb for mitochondrial assessments, diaphragm for in vitro force assessments and finally other tissues for further processing as described below. Muscle and visceral organs weights were normalized to tibia length. Tissue collected from the first phase were utilized in force, histological, mitochondrial measures (respiration, mH2O2 and calcium retention capacity) and western analyses (diaphragm and quadriceps only). A second phase was then collected and utilized for cytokine profiling, qPCR analyses and additional westerns (TA only). Serum was collected from both phase 1 and 2 and utilized for serum CK analysis. All animals were utilized in in vivo functional assays (grip strength, cage hang time and voluntary wheel running).
Voluntary wheel running, cage hang time and forelimb grip strength were assessed two days before sacrifice. Serum derived from cardiac puncture at the time of sacrifice were assessed spectrofluorometrically for creatine kinase activity (U/L).

D2.mdx mice [5] = experiment: Novel object recognition test; settings: 15 mg/kg b.w. daily, days 7 to 28 of age
Protocol: Male D2.mdx mice originated from a colony maintained at York University (Toronto, Canada) and sourced from Jackson Laboratories (Stock Number 013141, Bar Harbor, United States). Mice were treated daily from days 7 to 28 of age with ALY688 at 15 mg/kg b.w. (D2.mdx-ALY688) or saline control (D2.mdx-VEH). This age was chosen given it captures an early stage of disease progression in cardiac and skeletal muscle. Mice were sacrificed 20-24 hr after the last dose. Breeding of wildtype mice was unsuccessful. Instead, three-week-old wildtype DBA/2J WT mice (D2A) were obtained from Jackson Laboratories (Stock number 000671, Bar Harbor, United States) and allowed to acclimatize for one week before sacrifice. Mice were housed in standard 12:12-hr light:dark cycles and were allowed access to standard rodent chow and water ad libitum. 4 days prior to sacrifice, all groups underwent novel object recognition acclimatization and testing as described below. Mice were anesthetized under 5% isoflurane vaporized in medical air (21% oxygen) at a flow rate of 2 L/min and then maintained at 2-3% prior to euthanasia by exsanguination. […]
The novel object recognition test (NOR) was performed as previously described in literature. […] Sessions were recorded with a cell-phone video camera secured above the apparatus. […] Discrimination ratio (DR) was calculated as follows: DR=(Time(object 2)−Time(object 1))/Total time.

With [dN]IP[Nva]LY[dS]FA[dS]-NH2 [ALY688] the “ADP-stimulated respiration supported by pyruvate, HD vs VEH” value (D2.mdx mice [1]; LV) was “no effect”, the “ADP-stimulated respiration supported by pyruvate, increase vs wildtype” value (D2.mdx mice [1]; LV, HD, VEH 36%) was 46% and the “mH2O2 emissions supported by pyruvate” value (D2.mdx mice [1]; LV, between groups) was “not different between groups”. For the same substance, the “ADP-stimulated respiration supported by pyruvate” value (D2.mdx mice [1]; RV, HD, VEH −49% vs wildtype) was “completely rescued”, the “mH2O2 emission stimulated by pyruvate” value (D2.mdx mice [1]; RV, HD, range of [ADP], VEH +88% vs wildtype) was “did not change” and the “attenuation of diaphragm fibrosis (collagen content)” value (D2.mdx mice [2]; diaphragm, both doses (LD 3, HD 15 mg/kg/day s.c., 7 to 28-30 days of age)) was 66.7-67.6%. The “partial prevention of fibrosis and atrophy in tibialis anterior” value (D2.mdx mice [2]; tibialis anterior) was “not observed”, the left atrial fibrosis (D2.mdx mice [3]; HD 15 mg/kg s.c. daily for 3 weeks from 7 days of age) was “completely rescued” and the “right ventricular (RV) fibrosis” value (D2.mdx mice [3]; HD 15 mg/kg s.c. daily for 3 weeks, VEH +385%) was “completely rescued”. The serum creatine kinase (D2.mdx mice [4]; D2.mdx groups) was 3.1-to-5.2 fold increase vs WT, the “grip strength, cage hang time and voluntary wheel running, comparison between D2.mdx groups” value (D2.mdx mice [4]; VEH, LD, HD) was “similar” and the “grip strength, cage hang time and voluntary wheel running” value (D2.mdx mice [4]; all D2.mdx groups) was −15.1% to −91.0. For the same substance, the serum creatine kinase (D2.mdx mice [4]; low dose vs other D2.mdx groups) was “increases seen with the low dose” and the “recognition memory (discrimination index, NOR test)” value (D2.mdx mice [5]) was “completely prevented; also recorded: improved recognition memory; also recorded: normalized”.
